For the experiment, the system named is NMuMG cells. As to the kind of experiment: Apoptosis assay (FITC Annexin V/PI) after X-ray irradiation. It counts as cell-based, mouse. To be noted: 2 h pretreatment, X-ray 15 Gy, 72 hours, mean ± SEM. The text has this:
Four groups of BNL CL.2 cells (i.e., a normal control group referred to as Normal Control Group 1-A, an X-ray control group referred to as X-Ray Control Group 1-A, and two experimental groups referred to as Experimental Groups 1-A to 2-A), and six groups of NMuMG cells (i.e., a normal control group referred to as Normal Control Group 1-B, an X-ray control group referred to as X-Ray Control Group 1-B, two isorhamnetin groups referred to as Isorhamnetin Groups 1 to 2, and two experimental groups referred to as Experimental Groups 1-B to 2-B), were prepared based on the procedure set forth in “Source and cultivation of cell lines” of “Experimental materials”. BNL CL.2 cells in each group were cultivated using 5 mL of a corresponding medium shown in Table 1 and a 6-cm Petri dish in an amount of 2×10^5 cells per dish. Likewise, NMuMG cells in each group were cultivated using 5 mL of a corresponding medium shown in Table 1 and a 6-cm Petri dish in an amount of 2.5×10^5 cells per dish. The cultivation was conducted in an incubator (37° C., 5% CO2) for 24 hours.
Subsequently, medium was replaced with fresh medium. The obtained cultures in Experimental Groups 1-A, 1-B, 2-A, and 2-B were pretreated with the stock solution of isorhamnetin-3-O-β-D-glucoside, and the obtained cultures in Isorhamnetin Groups 1 to 2 were pretreated with the stock solution of isorhamnetin.
The culture in each group was then cultivated in an incubator (37° C., 5% CO2) for two hours. The resultant culture was used for the following experiments in sections B to D.
The cultures in X-Ray Control Group 1-A, X-Ray Control Group 1-B, Isorhamnetin Group 1, Isorhamnetin Group 2, Experimental Group 1-A, Experimental Group 1-B, Experimental Group 2-A, and Experimental Group 2-B, prepared according to section A of “Experimental procedures” in this example, were subjected to X-ray irradiation using a linear accelerator at a dose of 15 Gy. The cultures in Normal Control Groups 1-A and 1-B received no X-ray irradiation treatment. The culture of BNL CL.2 cells in each group was cultivated using a 6-cm Petri dish in an incubator (37° C., 5% CO2) for 96 hours, and the culture of NMuMG cells in each group was cultivated using a 6-cm Petri dish in an incubator (37° C., 5% CO2) for 72 hours. 1 mL of trypsin-EDTA was added to the culture in each group so as to detach the cells from the bottom of the Petri dish. Following this, 1 mL of a fresh medium (corresponding to the medium described in Table 1) was added to neutralize the activity of the trypsin, and the resultant cell suspension was transferred to a centrifuge tube with a pipette, followed by centrifugation at 1200 rpm for three minutes. The supernatant was removed, and the cell pellet thus obtained was washed once with cold PBS (pH 7.4), followed by centrifugation at 1200 rpm for 3 minutes. The supernatant was removed, and 100 μL of cold Annexin V binding buffer (BD Pharmingen™) was added to sufficiently re-suspend the cell pellet thereby obtaining a cell suspension having a cell concentration of 1.0×10^6 cells/mL. Afterward, 5 μL of FITC Annexin V (BD Pharmingen™) and 5 μL of propidium iodide (PI) staining solution (BD Pharmingen™) were added to the obtained cell suspension, followed by mixing evenly and standing in the dark at 4° C. for 30 minutes so as to obtain stained cells.
Subsequently, the stained cells were analyzed using BD Accuri™ C6 flow cytometry, in which cells that could be stained with FITC Annexin V but not with PI (i.e., FITC Annexin V positive and PI negative) represented cells that were induced with early apoptosis; cells stained with both FITC Annexin V and PI (i.e., FITC Annexin V positive and PI positive) represented cells that were induced with late apoptosis; and cells that could not be stained with FITC Annexin V and PI (i.e., FITC Annexin V negative and PI negative) represented viable cells. The number of stained cells was calculated using BD Accuri™ C6 software. […]

For one compound, Apoptosis percentage results are on record in patent US9821002B2, “Method for alleviating radiation injury with isorhamnetin-3-O-β-D-glucoside” (Sinotai Oncology Associate., Ltd., priority 2015, dated 2017).

With `COc1cc(-c2oc3cc(O)cc(O)c3c(=O)c2O)ccc1O` [Isorhamnetin], the Apoptosis percentage runs as follows: (15 μM) 22.87 ± 1.33%; (30 μM) 22.13 ± 0.29%.
